{
  "source": "patent US20080004222A1",
  "about": "“Antitumorigenic Drug Combination” (priority 2006, published 2008)",
  "key": {"[1]": {"test_system": "NMB MYCN-amplified NB cell line xenografts", "experiment": "Neuroblastoma xenograft study, NMB xenografts", "format": "in vivo, athymic nude mice", "conditions": "NMB xenografts about 70 mm^3, 20 days of treatment, each agent alone and in combination", "experimental": "(§1) SMS-KCNR, NMB, and NBL-W-S MYCN amplified NB cell lines were used in this study. Cells were grown at 5% CO2 in RPMI 1640 (Invitrogen, Carlsbad, Calif.) supplemented with 10% heat-inactivated fetal bovine serum, L-Glutamine, and antibiotics.\n(§2) Lyophilized peptides with the sequence: acetyl-sarcosine-glycine-valine-D-alloisoleucine-threonine-norvaline-isoleucine-arginine-proline-ethylamide were dissolved in sterile 5% dextrose and stored at 4° C.\n(§3) Female 4-6 week old homozygous athymic nude mice (Harlan, Madison, Wis.) were inoculated s.c. into the right flank with ^1×107SMS-KCNR or 1.25×10^7 NMB cells. Once tumors were palpable (70 mm^3), mice were treated 1×/day for 20 days with either acetyl-sarcosine-glycine-valine-Dalloisoleucine-threonine-norvaline-isoleucine-arginine-proline-ethylamide (IP, 40 mg/kg), VPA (IP, 400 mg/kg) or acetyl-sarcosine-glycine-valine-D-alloisoleucine-threonine-norvaline-isoleucine-arginine-proline-ethylamide and VPA (in combination). In separate experiments, treatment was started after the animals developed larger tumors>380 mm^3 in size and treatment was continued for 10 days. Tumor volumes were measured twice a week and calculated using the formula: tumor volume =(length X width^2)/2(25). The Student's t-test was used to compare tumor size in the control and treatment groups. Mice were sacrificed after 20 or 10 days of treatment, respectively. […]"}, "[2]": {"test_system": "SMS-KCNR MYCN-amplified NB cell line xenografts", "experiment": "Neuroblastoma xenograft study, SMS-KCNR model", "format": "in vivo, athymic nude mice", "conditions": "SMS-KCNR xenografts about 70 mm^3, 20 days of treatment, each agent alone and in combination", "experimental": "as §1, §2, §3"}, "large NB xenografts": {"test_system": "large NB xenografts", "conditions": "large xenografts >380 mm^3, after 10 days of treatment; peptide p<0.01, VPA p<0.001; FIG. 1C", "experimental": "as §1, §2, §3"}},
  "note": "Non-standard residues stand in square brackets, D forms with d. d(aIle) = CC[C@H](C)[C@@H](N)C(=O)O; Nva = CCC[C@H](N)C(=O)O; Sar = CNCC(=O)O",
  "data": [
    {"compound": "Ac-[Sar]GV[d(aIle)]T[Nva]IRP-NHEt", "values": [
      {"measurement": "tumor growth (result in words)", "setting": "[1]", "result": "Tumor growth was inhibited"},
      {"measurement": "tumor growth (result in words)", "setting": "[2]", "result": "Tumor growth was inhibited"},
      {"measurement": "tumor volumes reduced", "setting": "large NB xenografts", "result": 33, "unit": "%"}
    ]},
    {"compound": "CCCC(CCC)C(=O)O", "note": "[VPA, valproic acid]", "values": [
      {"measurement": "tumor growth (result in words)", "setting": "[1]", "result": "Tumor growth was inhibited"},
      {"measurement": "tumor growth (result in words)", "setting": "[2]", "result": "Tumor growth was inhibited"},
      {"measurement": "tumor volumes reduced", "setting": "large NB xenografts", "result": 44, "unit": "%"}
    ]}
  ]
}
